Laboratory results as given in patent US7795332B2, “Method of removing fluorinated carboxylic acid from aqueous liquid” (priority 2005, dated 2010).
Marks after values point to notes of the source that are not given here.

Test: Determination of bio-accumulation: urinary clearance pharmacokinetic study in rats
Conditions: for T½: renal elimination half-life, urine by fluorine NMR, exponential curve fitting; for Compound-related Effects: 73 micro Moles per kg oral gavage, clinical signs and gross necropsy 96 hours post-dose
[1] = recovery of administered amount in urine after 96 h, 73 micro Moles per kg, oral gavage
[2] = 73 micro Moles per kg, oral gavage
[3] = no parent compound in urine, based on elimination of the major metabolite C3F7-O-CHFCOO-, 73 micro Moles per kg, oral gavage

% Recovery (96 h) [1] | T½ [2] | % Recovery (96 h) [3] | T½ (h) [3] | Structure (SMILES) | Compound-related Effects
94% | 11 h | – | – | N.O=C(O)C(F)(F)C(F)OC(F)(F)C(F)(F)C(F)(F)F (stereo not shown) [Compound 13, C3F7—O—CFH—CF2COONH4] | –
50% | – | – | – | N.O=C(O)C(F)(F)OC(F)(F)C(F)(F)C(F)(F)OC(F)(F)F [Compound 4, CF3—(OCF2)3—OCF2—COONH4] | –
95% | 8 h | – | – | N.O=C(O)C(F)(F)C(F)(F)C(F)(F)OC(F)C(F)(F)F (stereo not shown) [Compound 15, CF3—CFH—O—(CF2)3—COONH4] | –
96% | 12 h | – | – | N.O=C(O)C(F)(F)OC(F)(F)OC(F)(F)F [Compound 2, CF3—OCF2—O—CF2—COONH4] | –
82% | 12 h | – | – | N.O=C(O)C(F)(F)C(F)(F)OC(F)(F)C(F)(F)C(F)(F)F [Compound 8, C3F7—O—CF2—CF2—COONH4] | –
84% | 12 h | – | – | N.O=C(O)C(F)(F)C(F)OC(F)(F)C(F)(F)C(F)(F)OC(F)(F)F (stereo not shown) [Compound 11, CF3—O—CF2—CF2—CF2—O—CHF—CF2—COONH4] | –
73% | – | – | – | N.O=C(O)C(F)(F)OC(F)(F)C(F)(F)C(F)(F)OC(F)(F)F [Compound 1, CF3—O—(CF2)3—O—CF2—COONH4] | –
100% | 10 h | – | – | N.O=C(O)C(F)(F)C(F)(F)OC(F)(F)C(F)(F)F [Compound 7, C2F5—O—CF2—CF2—COONH4] | –
– | – | 65* % | 13* h | N.O=C(O)COC(F)(F)C(F)OC(F)(F)C(F)(F)C(F)(F)F (stereo not shown) [Compound 16, C3F7—O—CFH—CF2—O—CH2—COONH4] | –
5% | 95 h | – | – | N.O=C(O)C(F)(F)OC(F)(F)C(F)(OC(F)(F)C(F)(F)C(F)(F)F)C(F)(F)F (stereo not shown) [Compound C-3, CF3CF2CF2OCF(CF3)CF2OCF2COONH4, reference compound] | Hepatomegaly
42% | 31 h | – | – | N.O=C(O)C(F)(F)C(F)(F)OC(F)(F)C(F)(F)C(F)(F)C(F)(F)F [Compound 9, C4F9—O—CF2—CF2—COONH4] | Hepatomegaly
32% | 24 h | – | – | N.O=C(O)C(F)(F)C(F)(F)C(F)(F)C(F)(F)C(F)(F)OC(F)C(F)(F)F (stereo not shown) [Compound 14, CF3—CFH—O—(CF2)5—COONH4] | Hepatomegaly
95% | 11 h | – | – | N.O=C(O)C(F)OC(F)(F)C(F)(F)C(F)(F)OC(F)(F)F (stereo not shown) [Compound 12, CF3—O—CF2—CF2—CF2—O—CHF—COONH4] | –

Structure (SMILES) | % Recovery (96 h) [1] | T½ [2] | % Recovery (96 h) [3] | T½ (h) [3] | Compound-related Effects
N.O=C(O)C(F)(F)C(F)(F)C(F)(F)C(F)(F)C(F)(F)C(F)(F)C(F)(F)F [Compound C-1, C7F15COONH4, reference compound] | 6% | ~550 h | – | – | Hepatomegaly
N.O=C(O)C(F)(F)C(F)(F)OC(F)(F)F [Compound 6, CF3—O—CF2—CF2—COONH4] | 100% | 11 h | – | – | –
N.O=C(O)C(F)(F)OC(F)(F)OC(F)(F)OC(F)(F)F [Compound 3, CF3—OCF2—OCF2—OCF2—COONH4] | 100% | 12 h | – | – | –
